Measurements taken from patent publication US20100105638A1, “COSMETIC COMPOSITIONS” (priority 2007, published 2010).
Like-named read-outs stand apart in the source and are kept apart here.

How the values were obtained:
[1] = Solubility of Biotin in aqueous niacinamide / sodium ascorbyl phosphate solutions (addition until turbid); type: physicochemical
Procedure: The solubility of Biotin was assessed in aqueous niacinamide (Niacinamide PC, DSM Nutritional Products)/sodium ascorbyl phosphate (STAY-C® 50, DSM Nutritional Products) solutions in different concentration. As reference, the solubility of biotin in water was assessed.
After the addition of 5 g of water into a 10 ml glass vial, STAY-C® 50 and Niacinamide PC were added in order to yield the ratios and wt. % as indicated in table 1. The mixtures were stirred with a magnetic stirrer at RT until STAY-C® 50 and Niacinamide PC were completely dissolved. Then, biotin was added in about 1 mg steps to the mixture until the solution becomes turbid. This experiment was repeated twice.
The sum of the amount of biotin which was added before the turbidity occurred is taken as the solubility of Biotin.

[2] = hot water; cited from earlier work

O=C(O)CCCC[C@@H]1SC[C@@H]2NC(=O)N[C@@H]21 [Biotin]
Solubility of Biotin ([1]; Reference: water without STAY-C 50 and Niacinamide PC, RT): 0.022 wt. % | Solubility of Biotin ([1]; water, STAY-C 50 0.1 wt. %, Niacinamide PC 1 wt. %, ratio 1:10, RT): 0.15 wt. % | Solubility of Biotin ([1]; water, STAY-C 50 0.1 wt. %, Niacinamide PC 3 wt. %, ratio 1:30, RT): 0.17 wt. % | Solubility of Biotin ([1]; water, STAY-C 50 0.1 wt. %, Niacinamide PC 5 wt. %, ratio 1:50, RT): 0.20 wt. % | Solubility of Biotin ([1]; water, STAY-C 50 0.1 wt. %, Niacinamide PC 10 wt. %, ratio 1:100, RT): 0.26 wt. % | Solubility of Biotin ([1]; water, STAY-C 50 0.5 wt. %, Niacinamide PC 1 wt. %, ratio 1:2, RT): 0.33 wt. % | Solubility of Biotin ([1]; water, STAY-C 50 0.5 wt. %, Niacinamide PC 3 wt. %, ratio 1:6, RT): 0.38 wt. % | Solubility of Biotin ([1]; water, STAY-C 50 0.5 wt. %, Niacinamide PC 5 wt. %, ratio 1:10, RT): 0.41 wt. % | Solubility of Biotin ([1]; water, STAY-C 50 0.5 wt. %, Niacinamide PC 10 wt. %, ratio 1:20, RT): 0.47 wt. % | Solubility of Biotin ([1]; water, STAY-C 50 1.0 wt. %, Niacinamide PC 1 wt. %, ratio 1:1, RT): 0.64 wt. % | Solubility of Biotin ([1]; water, STAY-C 50 1.0 wt. %, Niacinamide PC 3 wt. %, ratio 1:3, RT): 0.66 wt. % | Solubility of Biotin ([1]; water, STAY-C 50 1.0 wt. %, Niacinamide PC 5 wt. %, ratio 1:5, RT): 0.70 wt. % | Solubility of Biotin ([1]; water, STAY-C 50 1.0 wt. %, Niacinamide PC 10 wt. %, ratio 1:10, RT): 0.76 wt. % | Solubility of Biotin ([1]; water, STAY-C 50 3.0 wt. %, Niacinamide PC 1 wt. %, ratio 3:1, RT): 1.53 wt. % | Solubility of Biotin ([1]; water, STAY-C 50 3.0 wt. %, Niacinamide PC 3 wt. %, ratio 1:1, RT): 1.65 wt. % | Solubility of Biotin ([1]; water, STAY-C 50 3.0 wt. %, Niacinamide PC 5 wt. %, ratio 1:1.6, RT): 1.71 wt. % | Solubility of Biotin ([1]; water, STAY-C 50 3.0 wt. %, Niacinamide PC 10 wt. %, ratio 1:3.3, RT): 1.78 wt. % | Solubility of Biotin [2]: about 0.02 g/100 ml
